Data: the NIST ThermoML archive (doi:10.1021/acs.jced.9b00057)

Assay: wn = mass fraction of the nth substance listed
Conditions: 298 K, 100 kPa, Liquid; for mass density: Vibrating tube method

CCCCCCCCCC(=O)[O-].CCCCCCCCCCCCCC[P+](CCCCCC)(CCCCCC)CCCCCC [trihexyltetradecylphosphonium decanoate] + O
Conditions | viscosity [mPa·s]
Cone and plate viscometry, w2 = 0.162 | 96.1

Conditions | mass density [kg/m3]
w2 = 0.162 | 900

CCCC(=O)O [butanoic acid] + O
Conditions | mass density [kg/m3]
w1 = 6.86e-05 | 997.07
w1 = 0.000154 | 997.07
w1 = 0.000352 | 997.09
w1 = 0.000628 | 997.08
w1 = 0.000783 | 997.12
w1 = 0.00206 | 997.2
w1 = 0.0023 | 997.22
w1 = 0.00429 | 997.33
w1 = 0.00704 | 997.57
w1 = 0.00763 | 997.62
w1 = 0.0151 | 998.25
w1 = 0.0157 | 998.3
w1 = 0.0285 | 999.62
w1 = 0.0453 | 1001.89
w1 = 0.0508 | 1002.79
w1 = 0.0589 | 1004.25
w1 = 0.073 | 1000.5
w1 = 0.087 | 1001.01
w1 = 0.0974 | 1014.17
